Data on six compounds can be found in publication PMC5666424, “Marine-Derived 2-Aminoimidazolone Alkaloids. Leucettamine B-Related Polyandrocarpamines Inhibit Mammalian and Protozoan DYRK & CLK Kinases” (Marine Drugs, 2017).

Common to all, as to test: Protein kinase assay
In one experiment the target is CLK4 (Mus musculus, UniProt O35493). The note with it: read-out: IC50 CLK4; 15 μmol/L ATP.
The next experiment addresses CLK2 (Mus musculus, UniProt O35491). The note with it: read-out: IC50 CLK2; 15 μmol/L ATP.
Another experiment addresses CDK1/cyclin B. The class given is biochemical, starfish. The note with it: 15 μmol/L ATP.
Another experiment deals with DYRK1A (Homo sapiens, UniProt Q13627). The class given is biochemical. The note with it: 15 μmol/L ATP.
Another experiment addresses T1, DYRK3 (Homo sapiens, UniProt O43781).
T1 sequence (O43781 1-588): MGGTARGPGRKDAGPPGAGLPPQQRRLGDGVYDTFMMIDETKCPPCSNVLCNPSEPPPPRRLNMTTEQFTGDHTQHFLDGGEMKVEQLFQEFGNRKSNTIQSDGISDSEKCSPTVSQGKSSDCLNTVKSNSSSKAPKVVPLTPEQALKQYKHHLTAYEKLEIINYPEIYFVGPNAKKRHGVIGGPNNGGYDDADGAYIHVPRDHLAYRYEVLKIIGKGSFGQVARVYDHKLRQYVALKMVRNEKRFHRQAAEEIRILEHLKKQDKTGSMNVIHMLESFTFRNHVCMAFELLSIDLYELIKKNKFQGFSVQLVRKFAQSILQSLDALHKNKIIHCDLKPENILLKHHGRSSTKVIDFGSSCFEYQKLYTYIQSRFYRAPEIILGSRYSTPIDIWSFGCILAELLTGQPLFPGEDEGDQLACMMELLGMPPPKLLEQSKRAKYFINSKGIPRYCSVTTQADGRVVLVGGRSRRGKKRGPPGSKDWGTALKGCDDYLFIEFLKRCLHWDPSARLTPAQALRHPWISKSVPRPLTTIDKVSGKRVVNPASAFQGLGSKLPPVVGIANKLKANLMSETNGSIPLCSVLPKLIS
The class given is biochemical. To be noted: 15 μmol/L ATP; read-out: IC50 DYRK3.

In the next experiment the target is T2, CDK5/p25 (Homo sapiens, UniProt Q00535).
T2 construct: made in house
The format is biochemical. The note with it: 15 μmol/L ATP; read-out: IC50 CDK5/p25.

The next experiment deals with DYRK1B (Homo sapiens, UniProt Q9Y463). The format is biochemical. The note with it: 15 μmol/L ATP.
For a further experiment, the target named is LmCK1 (Leishmania major, UniProt Q9NHE1). The class given is biochemical. To be noted: 15 μmol/L ATP; read-out: IC50 LmCK1. The method, then:
(§1) CK1δ/ε (porcine brain, native) and LmCK1 (leishmania major, recombinant, expressed in E. coli as HIS fusion proteins) was assayed as described for CDK1 but in buffer C and using 25 μM CKS peptide ([…]pSAYSITA), a CK1-specific substrate.

A further experiment deals with T3, CDK2/cyclin A (Homo sapiens, UniProt P24941).
T3 construct: made in house
The class given is biochemical. The note with it: 15 μmol/L ATP; read-out: IC50 CDK2/cyclin A.

The next experiment concerns the target T4, PfGSK-3 (Plasmodium falciparum, UniProt O77344).
T4 sequence (O77344 1-440): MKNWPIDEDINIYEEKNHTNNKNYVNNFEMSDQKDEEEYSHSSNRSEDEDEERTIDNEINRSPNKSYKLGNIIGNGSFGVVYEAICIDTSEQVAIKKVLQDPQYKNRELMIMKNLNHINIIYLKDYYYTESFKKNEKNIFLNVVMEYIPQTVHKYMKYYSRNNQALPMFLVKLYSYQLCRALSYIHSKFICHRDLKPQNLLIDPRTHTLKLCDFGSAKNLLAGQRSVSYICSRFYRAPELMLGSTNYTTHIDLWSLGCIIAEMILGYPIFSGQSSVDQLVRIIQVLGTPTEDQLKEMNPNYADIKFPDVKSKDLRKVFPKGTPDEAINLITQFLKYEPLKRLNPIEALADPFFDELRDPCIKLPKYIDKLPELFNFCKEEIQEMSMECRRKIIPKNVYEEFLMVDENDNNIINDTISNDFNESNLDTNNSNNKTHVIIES
The class given is biochemical. The note with it: 15 μmol/L ATP; read-out: IC50 PfGSK-3. The method, then:
The parasitic kinase genes (Supplementary Data, Table S3) were optimized for expression in E. coli, synthesized, and cloned in pGEX-6P-1 (GE Healthcare, Sigma-Aldrich, St. Quentin Fallavier, France) with the type II restriction enzymes BamHI and XhoI for glutathione S-transferase (GST) fusion at the N-terminus (GenScript). Plasmids were transformed into chemically competent E. coli BL21(DE3), which were grown overnight at 37 °C in 2 × YT medium containing 100 μg/mL ampicillin. These cultures were used to inoculate 1 L volumes of 2 × YT medium (containing 100 μg/mL ampicillin) in 5 L flasks. The cultures were allowed to grow at 37 °C before the temperature was decreased to 18 °C. At an optical density at 600 nm (OD600) of about 1.0, protein expression was induced overnight at 18 °C with 0.1 mM isopropyl β-D-1-thiogalactopyranoside (IPTG). The bacteria were harvested by centrifugation and were frozen at −20 °C.
Cells were resuspended in a lysis buffer (PBS pH 7.4, 1% NP40, 1 mM DTT, 1 mM EDTA, 1 mM PMSF) in the presence of protease inhibitor cocktail (Roche), and lysozyme was added to 1 mg/mL and incubated 1 h at 4 °C with gentle agitation. Cells were then sonicated on ice before 6 mM MgCl2 and 25 U/mL benzonase (Novagen, Merck Millipore, Fontenay sous Bois, France) were added to degrade nucleic acids and decrease sample viscosity. After centrifugation at 4 °C, the soluble fraction was collected and proteins were bound to Glutathione sepharose 4B beads (GE Healthcare). Beads were washed three times with lysis buffer and once with modified buffer C (25 mM MOPS pH 7.0, 60 mM β-glycerophosphate, 15 mM p-nitrophenylphosphate, 15 mM EGTA, 15 mM MgCl2, 2 mM DTT, 1 mM sodium vanadate). Proteins were eluted with elution buffer (buffer C containing 30 mM reduced glutathione, 15% glycerol, and pH adjusted to 8.5).

In another experiment the target is CLK3 (Mus musculus, UniProt O35492). The note with it: read-out: IC50 CLK3; 15 μmol/L ATP.
The next experiment deals with CK1δ/ε. The class given is biochemical, porcine. To be noted: 15 μmol/L ATP. How it is done:
as §1

The next experiment concerns the target GSK-3α/β. The format is biochemical, porcine. The note with it: 15 μmol/L ATP.
In another experiment the target is CDK9/cyclin T (Homo sapiens, UniProt P50750). To be noted: read-out: IC50 CDK9/cyclin T; 15 μmol/L ATP.
The target in another experiment is CLK1 (Mus musculus, UniProt P22518). To be noted: read-out: IC50 CLK1; 15 μmol/L ATP.
A further experiment addresses T5, DYRK2 (Homo sapiens, UniProt Q92630).
T5 sequence (Q92630 1-601): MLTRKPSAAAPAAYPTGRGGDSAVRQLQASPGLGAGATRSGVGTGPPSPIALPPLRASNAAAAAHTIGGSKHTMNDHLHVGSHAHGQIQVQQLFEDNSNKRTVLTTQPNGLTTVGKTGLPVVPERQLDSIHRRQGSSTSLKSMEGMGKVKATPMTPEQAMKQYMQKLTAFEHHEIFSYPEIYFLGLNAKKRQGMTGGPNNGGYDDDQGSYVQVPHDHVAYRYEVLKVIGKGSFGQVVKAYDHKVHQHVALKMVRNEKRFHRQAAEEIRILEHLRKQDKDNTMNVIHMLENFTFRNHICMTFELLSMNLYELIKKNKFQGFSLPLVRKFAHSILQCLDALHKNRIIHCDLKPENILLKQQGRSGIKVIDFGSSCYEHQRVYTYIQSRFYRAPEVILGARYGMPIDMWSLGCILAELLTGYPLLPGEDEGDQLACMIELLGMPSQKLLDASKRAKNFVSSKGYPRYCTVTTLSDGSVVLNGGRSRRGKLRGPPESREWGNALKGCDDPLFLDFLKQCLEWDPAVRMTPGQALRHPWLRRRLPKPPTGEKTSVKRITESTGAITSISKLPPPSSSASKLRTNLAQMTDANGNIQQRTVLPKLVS
The format is biochemical. To be noted: 15 μmol/L ATP; read-out: IC50 DYRK2.

Sequence of CLK4 (O35493 whole entry): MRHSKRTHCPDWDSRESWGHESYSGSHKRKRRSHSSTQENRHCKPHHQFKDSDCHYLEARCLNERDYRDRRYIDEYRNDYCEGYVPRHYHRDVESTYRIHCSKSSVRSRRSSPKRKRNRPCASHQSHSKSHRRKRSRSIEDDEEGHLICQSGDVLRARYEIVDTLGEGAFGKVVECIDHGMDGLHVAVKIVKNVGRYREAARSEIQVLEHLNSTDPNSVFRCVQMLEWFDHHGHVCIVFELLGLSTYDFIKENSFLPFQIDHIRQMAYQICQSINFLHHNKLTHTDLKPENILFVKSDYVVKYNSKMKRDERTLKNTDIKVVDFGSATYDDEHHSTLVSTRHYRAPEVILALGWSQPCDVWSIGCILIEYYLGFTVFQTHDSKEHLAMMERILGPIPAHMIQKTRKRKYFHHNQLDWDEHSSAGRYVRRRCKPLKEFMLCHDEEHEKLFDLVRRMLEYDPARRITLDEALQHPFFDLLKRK
Sequence of LmCK1 (Q9NHE1 entry or part of it): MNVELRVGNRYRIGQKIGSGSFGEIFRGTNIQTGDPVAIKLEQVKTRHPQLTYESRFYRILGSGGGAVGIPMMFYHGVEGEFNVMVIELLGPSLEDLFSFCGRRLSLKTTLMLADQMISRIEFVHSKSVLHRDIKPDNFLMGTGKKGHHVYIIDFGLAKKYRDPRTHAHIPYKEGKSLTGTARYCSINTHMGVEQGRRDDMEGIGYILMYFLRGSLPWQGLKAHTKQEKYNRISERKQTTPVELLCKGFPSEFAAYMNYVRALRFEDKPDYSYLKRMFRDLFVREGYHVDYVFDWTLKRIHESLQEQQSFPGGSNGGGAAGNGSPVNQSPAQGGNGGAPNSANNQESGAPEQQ
Sequence of CLK2 (O35491 whole entry): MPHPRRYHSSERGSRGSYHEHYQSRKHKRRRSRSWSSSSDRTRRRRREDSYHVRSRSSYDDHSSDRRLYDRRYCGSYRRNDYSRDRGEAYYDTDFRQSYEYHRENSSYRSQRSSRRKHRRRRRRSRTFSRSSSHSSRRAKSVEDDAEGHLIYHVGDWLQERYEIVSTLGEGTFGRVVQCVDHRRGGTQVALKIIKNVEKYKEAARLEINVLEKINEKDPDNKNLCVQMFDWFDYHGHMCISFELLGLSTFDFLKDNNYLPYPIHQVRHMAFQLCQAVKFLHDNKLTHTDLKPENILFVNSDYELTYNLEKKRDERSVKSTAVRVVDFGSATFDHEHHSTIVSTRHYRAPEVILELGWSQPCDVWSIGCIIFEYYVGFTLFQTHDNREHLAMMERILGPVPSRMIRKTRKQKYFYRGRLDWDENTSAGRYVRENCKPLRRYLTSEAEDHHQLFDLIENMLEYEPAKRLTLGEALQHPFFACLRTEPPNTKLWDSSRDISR
Sequence of CLK1 (P22518 whole entry): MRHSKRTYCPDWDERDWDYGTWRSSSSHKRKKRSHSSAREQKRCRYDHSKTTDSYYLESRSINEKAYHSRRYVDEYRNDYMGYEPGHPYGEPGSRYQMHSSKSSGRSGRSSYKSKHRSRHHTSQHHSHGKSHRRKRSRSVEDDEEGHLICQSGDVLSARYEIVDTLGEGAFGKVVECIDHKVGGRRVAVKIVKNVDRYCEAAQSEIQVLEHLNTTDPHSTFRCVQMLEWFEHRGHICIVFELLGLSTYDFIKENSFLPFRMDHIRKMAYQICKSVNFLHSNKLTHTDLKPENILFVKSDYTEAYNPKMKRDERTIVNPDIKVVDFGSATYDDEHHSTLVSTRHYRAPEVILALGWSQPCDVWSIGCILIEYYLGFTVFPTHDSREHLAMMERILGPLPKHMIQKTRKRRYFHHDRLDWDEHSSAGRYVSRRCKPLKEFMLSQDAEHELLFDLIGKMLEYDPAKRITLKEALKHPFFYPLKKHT
T2 sequence (Q00535 whole entry): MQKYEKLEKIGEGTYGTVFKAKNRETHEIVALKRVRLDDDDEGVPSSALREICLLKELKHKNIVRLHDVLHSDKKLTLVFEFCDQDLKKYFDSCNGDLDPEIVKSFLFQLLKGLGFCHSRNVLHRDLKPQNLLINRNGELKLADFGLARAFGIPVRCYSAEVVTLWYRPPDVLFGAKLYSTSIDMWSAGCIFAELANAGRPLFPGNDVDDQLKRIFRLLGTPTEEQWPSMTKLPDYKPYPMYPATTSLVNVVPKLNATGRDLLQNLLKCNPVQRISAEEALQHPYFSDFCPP
T2 sequence (Q15078 99-307 partner limits assumed): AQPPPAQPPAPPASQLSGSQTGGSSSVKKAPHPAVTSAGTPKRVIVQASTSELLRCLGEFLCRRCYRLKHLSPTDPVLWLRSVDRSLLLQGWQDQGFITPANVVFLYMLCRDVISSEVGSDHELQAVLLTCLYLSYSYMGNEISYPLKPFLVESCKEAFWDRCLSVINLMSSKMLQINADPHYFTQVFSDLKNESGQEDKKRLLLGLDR
Sequence of CDK9/cyclin T (P50750 whole entry): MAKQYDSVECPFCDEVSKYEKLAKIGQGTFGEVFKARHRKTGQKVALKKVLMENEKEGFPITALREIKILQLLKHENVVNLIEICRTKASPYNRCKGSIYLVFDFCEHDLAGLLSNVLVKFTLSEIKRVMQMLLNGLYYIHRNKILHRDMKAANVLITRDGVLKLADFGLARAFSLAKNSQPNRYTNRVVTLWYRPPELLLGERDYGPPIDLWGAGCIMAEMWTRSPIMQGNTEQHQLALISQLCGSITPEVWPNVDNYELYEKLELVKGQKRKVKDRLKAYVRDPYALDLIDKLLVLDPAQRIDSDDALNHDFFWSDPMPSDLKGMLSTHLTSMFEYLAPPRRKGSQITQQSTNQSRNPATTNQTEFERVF
Sequence of CDK9/cyclin T (O60563 whole entry partner): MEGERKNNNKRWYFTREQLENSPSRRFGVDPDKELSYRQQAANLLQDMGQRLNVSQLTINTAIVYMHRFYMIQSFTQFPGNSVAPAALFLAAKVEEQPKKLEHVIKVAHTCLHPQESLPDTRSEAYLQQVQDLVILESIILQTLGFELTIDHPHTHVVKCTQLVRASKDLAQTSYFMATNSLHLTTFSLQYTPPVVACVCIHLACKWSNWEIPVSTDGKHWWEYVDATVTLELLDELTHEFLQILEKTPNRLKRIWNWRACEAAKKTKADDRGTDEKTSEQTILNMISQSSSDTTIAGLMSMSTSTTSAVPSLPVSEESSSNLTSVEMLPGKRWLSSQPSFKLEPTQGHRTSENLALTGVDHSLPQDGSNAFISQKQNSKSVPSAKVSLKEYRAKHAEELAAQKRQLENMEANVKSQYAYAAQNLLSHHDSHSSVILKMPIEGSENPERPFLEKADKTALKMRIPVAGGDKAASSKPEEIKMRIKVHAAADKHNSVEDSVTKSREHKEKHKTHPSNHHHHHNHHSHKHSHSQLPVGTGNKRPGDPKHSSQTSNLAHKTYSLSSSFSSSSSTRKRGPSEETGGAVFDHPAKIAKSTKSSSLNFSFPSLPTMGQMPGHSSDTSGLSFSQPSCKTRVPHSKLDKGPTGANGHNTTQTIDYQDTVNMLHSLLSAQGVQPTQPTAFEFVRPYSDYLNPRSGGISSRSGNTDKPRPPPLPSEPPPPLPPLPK
Sequence of DYRK1B (Q9Y463 whole entry): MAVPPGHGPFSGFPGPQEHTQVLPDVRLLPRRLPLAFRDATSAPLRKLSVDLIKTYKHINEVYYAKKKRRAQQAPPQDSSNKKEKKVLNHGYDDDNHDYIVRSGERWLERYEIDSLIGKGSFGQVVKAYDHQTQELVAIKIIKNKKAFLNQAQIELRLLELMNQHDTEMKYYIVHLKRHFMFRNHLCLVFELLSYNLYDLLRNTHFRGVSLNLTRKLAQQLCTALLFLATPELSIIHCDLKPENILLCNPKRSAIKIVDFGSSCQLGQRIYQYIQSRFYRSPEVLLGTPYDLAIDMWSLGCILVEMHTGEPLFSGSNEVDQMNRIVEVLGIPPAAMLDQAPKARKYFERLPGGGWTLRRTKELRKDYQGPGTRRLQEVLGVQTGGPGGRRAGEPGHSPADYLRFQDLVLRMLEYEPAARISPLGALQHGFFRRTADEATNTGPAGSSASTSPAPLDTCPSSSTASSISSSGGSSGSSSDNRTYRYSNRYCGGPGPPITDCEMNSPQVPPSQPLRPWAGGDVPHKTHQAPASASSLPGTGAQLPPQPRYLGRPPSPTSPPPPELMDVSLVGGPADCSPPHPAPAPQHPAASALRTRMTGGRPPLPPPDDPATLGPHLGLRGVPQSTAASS
Sequence of CLK3 (O35492 whole entry): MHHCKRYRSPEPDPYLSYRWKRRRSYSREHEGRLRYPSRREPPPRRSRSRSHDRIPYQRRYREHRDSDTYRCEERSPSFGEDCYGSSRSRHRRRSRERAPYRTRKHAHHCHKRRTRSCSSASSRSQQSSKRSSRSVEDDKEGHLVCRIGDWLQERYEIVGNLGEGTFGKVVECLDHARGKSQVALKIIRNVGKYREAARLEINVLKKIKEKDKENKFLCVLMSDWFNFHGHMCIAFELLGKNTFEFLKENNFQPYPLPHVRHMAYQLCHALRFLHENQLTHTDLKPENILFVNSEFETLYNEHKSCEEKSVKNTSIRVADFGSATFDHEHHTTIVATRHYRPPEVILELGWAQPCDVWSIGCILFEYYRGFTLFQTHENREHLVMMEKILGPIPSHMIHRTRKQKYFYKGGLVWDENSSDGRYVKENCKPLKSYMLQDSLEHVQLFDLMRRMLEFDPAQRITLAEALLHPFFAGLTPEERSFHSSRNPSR

Turning to `CN(C)CCOc1ccc(C=C2N=C(N)NC2=O)cc1` [PAC6], the IC50 at CLK4, at CLK2, against CDK1/cyclin B, at DYRK1A, on DYRK3 and on CDK5/p25 was over 10 µM in each case. The IC50 against DYRK1B, at LmCK1, on CDK2/cyclin A, at PfGSK-3, on CLK3 and on CK1δ/ε was over 10 µM throughout. Besides, the IC50 at GSK-3α/β, on CDK9/cyclin T, at CLK1 and on DYRK2 was over 10 µM each time.
`NC1=NC(=Cc2ccccc2N2CCOCC2)C(=O)N1` [PAC7]: the IC50 at CLK4, at CLK2, against CDK1/cyclin B, at DYRK1A, on DYRK3 and at CDK5/p25 was over 10 µM in each case. Further, the IC50 against DYRK1B, at LmCK1, at CDK2/cyclin A, on PfGSK-3, at CLK3 and at CK1δ/ε was over 10 µM throughout. Moreover, the IC50 on GSK-3α/β, at CDK9/cyclin T, at CLK1 and at DYRK2 was over 10 µM each time.
With `NC1=NC(=Cc2ccc(-n3ccnc3)cc2)C(=O)N1` [PAC8], the IC50 on CLK4, at CLK2, against CDK1/cyclin B, on DYRK1A, at DYRK3 and at CDK5/p25 was over 10 µM each time. In addition, the IC50 at DYRK1B, at LmCK1, on CDK2/cyclin A, on PfGSK-3, at CLK3 and against CK1δ/ε was over 10 µM each time. For the same compound, the IC50 was over 10 µM against GSK-3α/β, 0.51 µM at CDK9/cyclin T, over 10 µM at CLK1 and over 10 µM at DYRK2.
`NC1=NC(=Cc2c[nH]nc2-c2ccccc2)C(=O)N1` [PAC9]: the IC50 at CLK4, at CLK2, at CDK1/cyclin B, against DYRK1A, at DYRK3 and at CDK5/p25 was over 10 µM each time. Besides, the IC50 is over 10 µM against DYRK1B; 0.63 µM at LmCK1; over 10 µM at CDK2/cyclin A; over 10 µM on PfGSK-3; over 10 µM on CLK3; 3.6 µM against CK1δ/ε. Moreover, the IC50 is over 10 µM at GSK-3α/β, over 10 µM at CDK9/cyclin T, at least 10 µM on CLK1 and over 10 µM on DYRK2.
Take `Cc1ccc(C=C2N=C(N)NC2=O)s1` [PAC10]: the IC50 was over 10 µM on CLK4; over 10 µM on CLK2; over 10 µM against CDK1/cyclin B; 3 µM against DYRK1A; over 10 µM on DYRK3; over 10 µM at CDK5/p25. For the same compound, the IC50 at DYRK1B, at LmCK1, at CDK2/cyclin A, on PfGSK-3, at CLK3 and on CK1δ/ε was over 10 µM throughout. Moreover, the IC50 is over 10 µM at GSK-3α/β, over 10 µM on CDK9/cyclin T, over 10 µM at CLK1 and 3.4 µM at DYRK2.
For the compound `NC1=NC(=Cc2cc(Br)cs2)C(=O)N1` [PAC11], the IC50 on CLK4 was 3.2 µM; on CLK2 it was at least 10 µM; on CDK1/cyclin B it was over 10 µM; on DYRK1A, 2.1 µM; on DYRK3, 2.4 µM; on CDK5/p25 it was over 10 µM. Also, the IC50 against DYRK1B is 6.2 µM; on LmCK1, over 10 µM; on CDK2/cyclin A, over 10 µM; at PfGSK-3, over 10 µM; at CLK3, over 10 µM; on CK1δ/ε it was over 10 µM. In addition, the IC50 against GSK-3α/β was 2 µM; on CDK9/cyclin T it was over 10 µM; at CLK1, 4.2 µM; on DYRK2 it was 1.3 µM.
